Assay results from US5149719A, “Composition for transdermal penetration of medicaments” (priority 1990, dated 1992).
Structures can show the parent of a compound that is named as a salt.

How the values were obtained:
[1] = for amount of higher alcohol necessary to reach a small permanent visible excess: H^3-mannitol in 30% v/v aqueous ethanol
Method: Trace amounts of H^3 -mannitol were added to 10 ml aliquots of a 33% (v/v) ethanol/water solution. The saturating amount of octanol for this solution was determined to be 45 μl per aliquot. Varying amounts of octanol were added to each aliquot as shown below. The aliquots were warmed and kept at 32° C. until use.

in vitro = settings: guinea pig, Permeability Coefficient (cm/hr) ± SEM, saturated dodecanol, Example 13

| Structure (SMILES) | amount of higher alcohol necessary to reach a small permanent visible excess [1] | also measured |
| --- | --- | --- |
| CCCCCO [pentanol] | 100 μl/ml |  |
| CCCCCCCCCCO [decanol] | ~10 μl/ml |  |
| CCCCCCCCCCCCCO [tridecanol] | ~4 mg/mL |  |
| CCCCCCCCCCCCO [dodecanol] | ~10 μl/ml |  |
| COc1ccc([C@@H]2Sc3ccccc3N(CCN(C)C)C(=O)[C@@H]2OC(C)=O)cc1 [Diltiazem Hydrochloride] |  | Papp at 8 h (in vitro; 20% v/v ethanol): 0.0336 ×10⁻⁶ cm/s; Papp at 8 h (in vitro; 30% v/v ethanol): 0.0925 ×10⁻⁶ cm/s; Papp at 8 h (in vitro; 40% v/v ethanol): 0.319 ×10⁻⁶ cm/s; Papp at 8 h (in vitro; 50% v/v ethanol): 0.294 ×10⁻⁶ cm/s; Papp at 8 h (in vitro; no ethanol): 0.00764 ×10⁻⁶ cm/s |
| CCCCCCCCO [octanol] | ~20 μl/ml | saturating amount of octanol ([1]; 10 ml aliquots of 33% (v/v) ethanol/water with trace H^3-mannitol): 45 μl per aliquot |

Continued, in another order:

| amount of higher alcohol necessary to reach a small permanent visible excess [1] | Structure (SMILES) | also measured |
| --- | --- | --- |
| ~0.1 mg/mL | CCCCCCCCCCCCCCCCCCO [octadecanol] |  |
| ~4 mg/mL | CCCCCCCCCCCCCCO [tetradecanol] |  |
| ~0.1 mg/mL | CCCCCCCCCCCCCCCCO [hexadecanol] |  |
